Results from US9233940B2, “Cyclic peptidomimetic compounds as immunomodulators” (Aurigene Discovery Technologies Limited, priority 2014, dated 2016).

Biological target: T1, recombinant mouse PD-L1 (Mus musculus, UniProt Q9EP73)
T1 construct: purchased R&D Systems 1019-B7-100
Experiment: Rescue of mouse splenocyte proliferation in the presence of recombinant PD-L1 (CFSE proliferation assay)
Assay type: cell-based
Details: CFSE-labelled mouse splenocytes + anti-CD3/CD28 + PD-L1, 72 h, normalised to stimulated splenocytes as 100%; for activity at 0.1 µM: 72 h, 100 nM compound, read-out: Percent rescue of splenocyte proliferation @ 100 nM compound concentration
Method: Rescue of Mouse Splenocyte Proliferation in the Presence of Recombinant PD-L1
Recombinant mouse PD-L1 (rm-PDL-1, cat no: 1019-B7-100; R&D Systems) were used as the source of PD-L1.
Mouse splenocytes harvested from 6-8 weeks old C57 BL6 mice; RPMI 1640 (GIBCO, Cat #11875); DMEM with high glucose (GIBCO, Cat # D6429); Fetal Bovine Serum [Hyclone, Cat # SH30071.03]; Penicillin (10000 unit/ml)-Streptomycin(10,000 μg/ml) Liquid (GIBCO, Cat #15140-122); MEM Sodium Pyruvate solution 100 mM (100×), Liquid (GIBCO, Cat #11360); Nonessential amino acid (GIBCO, Cat #11140); L-Glutamine (GIBCO, Cat #25030); Anti-CD3 antibody (eBiosciences-16-0032); Anti-CD28 antibody (eBiosciences-16-0281); ACK lysis buffer (1 mL) (GIBCO, Cat #-A10492); Histopaque (density-1.083 gm/mL) (SIGMA 10831); Trypan blue solution (SIGMA-T8154); 2 mL Norm Ject Luer Lock syringe—(Sigma 2014-12); 40 μm nylon cell strainer (BD FALCON 35230); Hemacytometer (Bright line-SIGMA Z359629); FACS Buffer (PBS/0.1% BSA): Phosphate Buffered Saline (PBS) pH 7.2 (HiMedia TS1006) with 0.1% Bovine Serum Albumin (BSA) (SIGMA A7050) and sodium azide (SIGMA 08591); 5 mM stock solution of CFSE: CFSE stock solution was prepared by diluting lyophilized CFSE with 180 μL of Dimethyl sulfoxide (DMSO C2H6SO, SIGMA-D-5879) and aliquoted in to tubes for further use. Working concentrations were titrated from 10 μm to 1 μm. (eBioscience-650850-85); 0.05% Trypsin and 0.02% EDTA (SIGMA 59417C); 96-well format ELISA plates (Corning CLS3390); BD FACS caliber (E6016); Recombinant mouse B7-H1/PDL1 Fc Chimera, (rm-PD-L1 cat no: 1019-B7-100).
Splenocytes harvested in a 50 mL falcon tube by mashing mouse spleen in a 40 μm cell strainer were further treated with 1 ml ACK lysis buffer for 5 mins at room temperature. After washing with 9 mL of RPMI complete media, cells were re-suspended in 3 ml of 1×PBS in a 15 mL tube. 3 mL of Histopaque was added carefully to the bottom of the tube without disturbing overlaying splenocyte suspension. After centrifuging at 800×g for 20 min. at room temperature, the opaque layer of splenocytes was collected carefully without disturbing/mixing the layers. Splenocytes were washed twice with cold 1×PBS followed by total cell counting using Trypan Blue exclusion method and used further for cell based assays.
Splenocytes were cultured in RPMI complete media (RPMI+10% fetal bovine serum+1 mM sodium pyruvate+10,000 units/mL penicillin and 10,000 μg/mL streptomycin) and maintained in a CO2 incubator with 5% CO2 at 37° C.
CFSE is a dye that passively diffuses into cells and binds to intracellular proteins. 1×10^6 cells/ml of harvested splenocytes were treated with 5 μm of CFSE in pre-warmed 1×PBS/0.1% BSA solution for 10 mins at 37° C. Excess CFSE was quenched using 5 volumes of ice-cold culture media to the cells and incubated on ice for 5 min. CFSE labelled splenocytes were further given three washes with ice cold complete RPMI media. CFSE labelled 1×10^5 splenocytes added to wells containing either MDA-MB231 cells (1×10^5 cells cultured in high glucose DMEM medium) or recombinant human PDL-1 (100 ng/mL) and test compounds. Splenocytes were stimulated with anti-mouse CD3 and anti-mouse CD28 antibody (1 μg/mL each), and the culture was further incubated for 72 h at 37° C. with 5% CO2. Cells were harvested and washed thrice with ice cold FACS buffer and % proliferation was analysed by flow cytometry with 488 nm excitation and 521 nm emission filters.
Percent splenocyte proliferation was analysed using cell quest FACS program and percent rescue of splenocyte proliferation by compound was estimated after deduction of % background proliferation value and normalising to % stimulated splenocyte proliferation (positive control) as 100%.
Background proliferation: Splenocytes+anti-CD3/CD28+PD-L1
Stimulated splenocytes: Splenocytes+anti-CD3/CD28 stimulation
Compound proliferation: Splenocytes+anti-CD3/CD28+PD-L1+Compound […]

T1 sequence (Q9EP73 with tags, fused parts or gaps limits assumed): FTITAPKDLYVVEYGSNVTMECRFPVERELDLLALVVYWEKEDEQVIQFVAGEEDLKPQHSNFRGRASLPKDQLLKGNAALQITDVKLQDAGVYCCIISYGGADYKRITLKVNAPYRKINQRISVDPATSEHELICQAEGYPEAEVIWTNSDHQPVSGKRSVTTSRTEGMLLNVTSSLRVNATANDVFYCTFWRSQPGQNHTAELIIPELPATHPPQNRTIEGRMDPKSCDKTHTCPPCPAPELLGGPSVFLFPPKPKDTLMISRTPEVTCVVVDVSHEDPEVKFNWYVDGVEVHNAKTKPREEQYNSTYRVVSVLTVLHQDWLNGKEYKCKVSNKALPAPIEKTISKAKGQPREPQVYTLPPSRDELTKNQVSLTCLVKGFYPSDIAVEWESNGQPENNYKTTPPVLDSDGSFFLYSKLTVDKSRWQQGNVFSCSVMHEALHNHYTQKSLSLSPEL

SMILES	activity at 0.1 µM [%]	Percent rescue of splenocyte proliferation @ 100 nM compound concentration
CC(O)[C@@H]1NC(=O)N[C@@H](CC(N)=O)C(=O)NNC(=O)[C@H](CO)NC(=O)COCCOCCNC1=O (stereo partly drawn) [Compound 1]	95	–
CC(O)[C@H]1NC(=O)COCCOCCNC(=O)[C@@H](CO)NC(=O)N[C@H](CC(N)=O)C(=O)NNC1=O (stereo partly drawn) [Compound 2]	94	–
CC(O)[C@H]1NC(=O)COCCOCCNC(=O)[C@@H](CO)NC(=O)N[C@H](CC(N)=O)C(=O)N(C)NC1=O (stereo partly drawn) [Compound 3]	58	–
CC(O)[C@H]1NC(=O)CCCCCCNC(=O)[C@@H](CO)NC(=O)N[C@H](CC(N)=O)C(=O)NNC1=O (stereo partly drawn) [Compound 4]	49	–
CCC(C)[C@@H]1NC(=O)N[C@@H](CC(N)=O)C(=O)NNC(=O)[C@H](CO)NC(=O)COCCOCCNC1=O (stereo partly drawn) [Compound 5]	53	–
NC(=O)C[C@@H]1NC(=O)N[C@@H](CC(=O)O)C(=O)NCCOCCOCC(=O)N[C@@H](CO)C(=O)NNC1=O [Compound 8]	68	–
NC(=O)C[C@@H]1NC(=O)N[C@H](CO)C(=O)NCCOCCOCC(=O)N[C@@H](CO)C(=O)NNC1=O [Compound 9]	73	–
CC(O)[C@@H]1NC(=O)N[C@H](CC(N)=O)C(=O)NNC(=O)[C@@H](C(C)O)NC(=O)COCCOCCNC1=O (stereo partly drawn) [Compound 10]	89	–
NC(=O)C[C@@H]1NC(=O)N[C@H](CO)C(=O)NCCOCCOCC(=O)N[C@@H](CO)C(=O)NNC1=O [Compound 12]	–	91
